biological target: human TRPV3 receptors (Homo sapiens (Human), UniProt Q8NET8); test: Calcium flux assay (FLIPR TETRA), inhibition of the 2-APB response; type: cell-based; details: recombinant HEK293 cells stably expressing TRPV3, Calcium-4 dye, 2-APB at its EC80
Method: (i) In Vitro Methods-Calcium Flux Assays:
Experiments were conducted using the FLIPR^TETRA®. On the day prior to the experiment, recombinant HEK293 cells that stably express human and mouse TRPV3 were removed from tissue culture flasks and plated in growth medium at 20,000 cells/well into black-walled clear-bottom 384-well Biocoat™ poly-D-lysine assay plates (BD Biosciences, Bedford, Mass.) using a Multidrop® dispenser (ThermoScientific, Waltham, Mass.). […] Cells were incubated for 90-120 minutes in the dark. Compounds were dissolved in DMSO to prepare a 10 mM stock solution. The intensity of the fluorescence was captured and digitally transferred to an interfaced PC. The peak increase in fluorescence over baseline (relative fluorescence units) was calculated and expressed as the percentage of the maximal 2-APB (2-aminoethoxyldiphenyl borate) response (in the absence of compound).

Sequence of human TRPV3 receptors (Q8NET8 whole entry): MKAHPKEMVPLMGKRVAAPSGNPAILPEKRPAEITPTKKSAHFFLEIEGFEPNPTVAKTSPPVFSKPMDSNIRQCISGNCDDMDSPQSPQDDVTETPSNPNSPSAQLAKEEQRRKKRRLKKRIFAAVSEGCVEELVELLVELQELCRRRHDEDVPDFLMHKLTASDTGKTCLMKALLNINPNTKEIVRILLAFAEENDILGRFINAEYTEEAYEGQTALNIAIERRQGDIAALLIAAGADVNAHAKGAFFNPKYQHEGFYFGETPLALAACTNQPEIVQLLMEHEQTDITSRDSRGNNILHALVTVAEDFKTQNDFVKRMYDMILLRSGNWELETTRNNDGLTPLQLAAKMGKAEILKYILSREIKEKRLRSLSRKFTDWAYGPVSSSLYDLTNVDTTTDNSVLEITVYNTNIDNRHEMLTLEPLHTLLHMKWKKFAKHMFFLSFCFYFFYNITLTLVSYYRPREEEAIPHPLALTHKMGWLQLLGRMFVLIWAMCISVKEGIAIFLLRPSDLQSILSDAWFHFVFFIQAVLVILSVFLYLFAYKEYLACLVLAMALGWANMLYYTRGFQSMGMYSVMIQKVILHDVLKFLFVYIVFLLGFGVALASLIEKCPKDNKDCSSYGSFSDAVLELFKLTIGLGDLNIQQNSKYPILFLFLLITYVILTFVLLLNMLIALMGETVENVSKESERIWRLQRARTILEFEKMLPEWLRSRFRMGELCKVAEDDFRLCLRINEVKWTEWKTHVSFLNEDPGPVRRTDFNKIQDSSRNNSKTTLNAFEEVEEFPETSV

| IC50 | Structure (SMILES) |
| --- | --- |
| 2.6 µM | CC(C)(CO)CNCc1cccc(-c2ccc(C(F)(F)F)cc2)n1 [Example 8, 2,2-dimethyl-3-[({6-[4-(trifluoromethyl)phenyl]pyridin-2-yl}methyl)amino]propan-1-ol] |
| 3.3 µM | CC(C)[C@H](CO)NCc1nc(-c2cc(Cl)cc(Cl)c2)ccc1F [Example 21, (2R)-2-({[6-(3,5-dichlorophenyl)-3-fluoropyridin-2-yl]methyl}amino)-3-methylbutan-1-ol] |
| 7.3 µM | CC(C)C[C@H](CO)NCc1ccnc(-c2ccc(C(F)(F)F)cc2)n1 [Example 142, (2R)-4-methyl-2-[({2-[4-(trifluoromethyl)phenyl]pyrimidin-4-yl}methyl)amino]pentan-1-ol] |
| > 20 µM | CC(C)(O)[C@H](CO)NCc1ccnc(-c2ccc(S(=O)(=O)C(F)(F)F)cc2)n1 [Example 211, (2S)-3-methyl-2-{[(2-{4-[(trifluoromethyl)sulfonyl]phenyl}pyrimidin-4-yl)methyl]amino}butane-1,3-diol] |
| 0.57 µM | OC[C@H](NCc1nc(-c2ccc(C(F)(F)F)nc2)ccc1F)C1CCCCC1 [Example 88, (2R)-2-cyclohexyl-2-({[5-fluoro-6′-(trifluoromethyl)-2,3′-bipyridin-6-yl]methyl}amino)ethanol] |
| 0.79 µM | CC(C)[C@H](CO)NCc1nc(C2CCC(C)(C)CC2)ccc1F [Example 202, (2R)-2-({[6-(4,4-dimethylcyclohexyl)-3-fluoropyridin-2-yl]methyl}amino)-3-methylbutan-1-ol] |
| 1.44 µM | CC(c1ccccc1)c1ccc(F)c(CN[C@@H](CO)C(C)C)n1 (stereo partly drawn) [Example 127, (2R)-2-({[3-fluoro-6-(1-phenylethyl)pyridin-2-yl]methyl}amino)-3-methylbutan-1-ol] |
| > 20 µM | CC(C)[C@@H](NCc1nc(-c2ccc(C(F)(F)F)nc2)ccc1F)C(N)=O [Example 117, (R)-2-((5-fluoro-6′-(trifluoromethyl)-2,3′-bipyridin-6-yl)methylamino)-3-methylbutanamide] |
| 0.19 µM | CC(C)[C@H](CO)NCc1cccc(C#Cc2ccc(F)c(F)c2)n1 [Example 265, (2R)-2-[({6-[(3,4-difluorophenyl)ethynyl]pyridin-2-yl}methyl)amino]-3-methylbutan-1-ol] |
| 9.31 µM | OC[C@H](NCc1ccnc(-c2ccc(C(F)(F)F)cc2)n1)[C@@H](O)c1ccccc1 [Example 153, (1S,2S)-1-phenyl-2-[({2-[4-(trifluoromethyl)phenyl]pyrimidin-4-yl}methyl)amino]propane-1,3-diol] |
| 3.1 µM | CCC[C@H](CO)NCc1nc(-c2ccc(C(F)(F)F)nc2)ccc1F [Example 87, (2R)-2-({[5-fluoro-6′-(trifluoromethyl)-2,3′-bipyridin-6-yl]methyl}amino)pentan-1-ol] |
| 2.46 µM | CC(C)[C@H](CO)NCc1nc(C2CCN(C(=O)OC(C)(C)C)CC2)ccc1F [Example 205, tert-butyl 4-[5-fluoro-6-({[(2R)-1-hydroxy-3-methylbutan-2-yl]amino}methyl)pyridin-2-yl]piperidine-1-carboxylate] |
| 0.55 µM | CC(C)[C@H](CO)NCc1nc(-c2ccc(C(F)(F)F)cc2C(F)(F)F)ccc1F [Example 293, (2R)-2-[({6-[2,4-bis(trifluoromethyl)phenyl]-3-fluoropyridin-2-yl}methyl)amino]-3-methylbutan-1-ol] |
| > 20 µM | CC(C)[C@@H](CO)NCc1nc(-c2ccc(C(F)(F)F)nc2)ccc1F [Example 35, (2S)-2-({[5-fluoro-6′-(trifluoromethyl)-2,3′-bipyridin-6-yl]methyl}amino)-3-methylbutan-1-ol] |
| > 20 µM | CC(C)[C@H](CO)NCc1cc(C(F)(F)F)cc(-c2ccc(C(F)(F)F)nc2)n1 [Example 118, (2R)-2-({[4,6′-bis(trifluoromethyl)-2,3′-bipyridin-6-yl]methyl}amino)-3-methylbutan-1-ol] |
| > 20 µM | CC(C)[C@H](CO)NCc1nc(-c2ccc(N3CCN(C)CC3)nc2)ccc1F [Example 254, (2R)-2-({[5-fluoro-6′-(4-methylpiperazin-1-yl)-2,3′-bipyridin-6-yl]methyl}amino)-3-methylbutan-1-ol] |
| 3.68 µM | COCC(CO)NCc1nc(-c2ccc(C(F)(F)F)cc2)ccc1F (stereo not shown) [Example 74, 2-[({3-fluoro-6-[4-(trifluoromethyl)phenyl]pyridin-2-yl}methyl)amino]-3-methoxypropan-1-ol] |
| 0.38 µM | CC(C)[C@H](CO)NCc1nc(/C=C/c2cccc(F)c2)ccc1F [Example 233, (2R)-2-[({3-fluoro-6-[(E)-2-(3-fluorophenyl)ethenyl]pyridin-2-yl}methyl)amino]-3-methylbutan-1-ol] |
| 1.47 µM | CC[C@H](CO)NCc1ccnc(-c2ccc(S(=O)(=O)C(F)(F)F)cc2)n1 [Example 209, (2R)-2-{[(2-{4-[(trifluoromethyl)sulfonyl]phenyl}pyrimidin-4-yl)methyl]amino}butan-1-ol] |
| 8.65 µM | OC[C@H](NCc1ccnc(-c2ccc(C(F)(F)F)cc2)n1)C1CCCCC1 [Example 146, (2R)-2-cyclohexyl-2-[({2-[4-(trifluoromethyl)phenyl]pyrimidin-4-yl}methyl)amino]ethanol] |
| 0.13 µM | CC(C)[C@H](CO)NCc1nc(C#Cc2ccccc2)ccc1F [Example 289, (2R)-2-({[3-fluoro-6-(phenylethynyl)pyridin-2-yl]methyl}amino)-3-methylbutan-1-ol] |

Further lines, the compound ahead of its results:

| Structure (SMILES) | IC50 |
| --- | --- |
| CC(C)[C@H](CO)NCc1nc(-c2cc(C(F)(F)F)cc(C(F)(F)F)c2)ccc1F [Example 22, (2R)-2-[({6-[3,5-bis(trifluoromethyl)phenyl]-3-fluoropyridin-2-yl}methyl)amino]-3-methylbutan-1-ol] | 1.28 µM |
| OC[C@H](NCc1nc(-c2ccc(C(F)(F)F)cc2)ccc1F)C1CC1 [Example 29, (2R)-2-cyclopropyl-2-[({3-fluoro-6-[4-(trifluoromethyl)phenyl]pyridin-2-yl}methyl)amino]ethano 1] | 0.41 µM |
| OCC1(NCc2ccnc(-c3ccc(C(F)(F)F)cc3)n2)CCCC1 [Example 133, {1-[({2-[4-(trifluoromethyl)phenyl]pyrimidin-4-yl}methyl)amino]cyclopentyl}methanol] | 9.32 µM |
| OCC1(NCc2ccnc(-c3ccc(C(F)(F)F)cc3)n2)CCCCC1 [Example 134, {1-[({2-[4-(trifluoromethyl)phenyl]pyrimidin-4-yl}methyl)amino]cyclohexyl}methanol] | 11 µM |
| COCC(CO)NCc1ccnc(-c2ccc(C(F)(F)F)nc2)n1 (stereo not shown) [Example 187, 3-methoxy-2-[({2-[6-(trifluoromethyl)pyridin-3-yl]pyrimidin-4-yl}methyl)amino]propan-1-ol] | > 20 µM |
| OC[C@H]1[C@H]2CC[C@H](C2)[C@H]1NCc1ccnc(-c2ccc(C(F)(F)F)cc2)n1 [Example 170, {(1S,2S,3R,4R)-3-[({2-[4-(trifluoromethyl)phenyl]pyrimidin-4-yl}methyl)amino]bicyclo[2.2.1]hept-2-yl]methanol] | 6.16 µM |
| OC[C@H](NCc1nc(-c2ccc(C(F)(F)F)cc2)ccc1F)C1CCCCC1 [Example 84, (2R)-2-cyclohexyl-2-[({3-fluoro-6-[4-(trifluoromethyl)phenyl]pyridin-2-yl}methyl)amino]ethanol] | 0.7 µM |
| CC(C)(C)[C@H](CO)NCc1nc(-c2ccc(C(F)(F)F)nc2)ccc1F [Example 89, (2R)-2-({[5-fluoro-6′-(trifluoromethyl)-2,3′-bipyridin-6-yl]methyl}amino)-3,3-dimethylbutan-1-ol] | 0.51 µM |
| CC(C)[C@H](CO)NCc1nc(N2CCc3ccccc3C2)ccc1F [Example 70, (2R)-2-({[6-(3,4-dihydroisoquinolin-2(1H)-yl)-3-fluoropyridin-2-yl]methyl}amino)-3-methylbutan-1-ol] | 0.18 µM |
| CC(C)[C@H](CO)NCc1nc(C2=CCCCC2)ccc1F [Example 126, (2R)-2-({[6-(cyclohex-1-en-1-yl)-3-fluoropyridin-2-yl]methyl}amino)-3-methylbutan-1-ol] | 0.74 µM |
| CC(C)[C@H](CO)NCc1nc(-c2cncc(Cl)c2)ccc1F [Example 278, (2R)-2-{[(5′-chloro-5-fluoro-2,3′-bipyridin-6-yl)methyl]amino}-3-methylbutan-1-ol] | 2.69 µM |
| CC(C)[C@H](CO)NCc1nc(-c2cccc3c2ccn3C)ccc1F [Example 63, (2R)-2-({[3-fluoro-6-(1-methyl-1H-indol-4-yl)pyridin-2-yl]methyl}amino)-3-methylbutan-1-ol] | 1.74 µM |
| CC(C)[C@H](CO)NCc1nc(-c2cnc(OCC(F)(F)F)nc2)ccc1F [Example 114, (2R)-2-[({3-fluoro-6-[2-(2,2,2-trifluoroethoxy)pyrimidin-5-yl]pyridin-2-yl}methyl)amino]-3-methylbutan-1-ol] | 2.33 µM |
| OCC1(NCc2nc(-c3ccc(C(F)(F)F)cc3)ccc2F)CCC1 [Example 79, {1-[({3-fluoro-6-[4-(trifluoromethyl)phenyl]pyridin-2-yl}methyl)amino]cyclobutyl}methanol] | 0.7 µM |
| CC(C)[C@H](CO)NCc1nc(-c2ccc(C(=O)N3CCCC3)cc2)ccc1F [Example 276, {4-[5-fluoro-6-({[(2R)-1-hydroxy-3-methylbutan-2-yl]amino}methyl)pyridin-2-yl]phenyl}(pyrrolidin-1-yl)methanone] | 10.9 µM |
| CC(C)(CO)NCc1cccc(-c2cccc([Si](C)(C)C)c2)n1 [Example 237, 2-methyl-2-[({6-[3-(trimethylsilyl)phenyl]pyridin-2-yl}methyl)amino]propan-1-ol] | 5.75 µM |

— US9012651B2, “TRPV3 modulators” (AbbVie Inc., priority 2011, dated 2015)
